# Reference: ChEMBL document CHEMBL2150986, “Synthesis and biological evaluation of 1-benzylidene-3,4-dihydronaphthalen-2-one as a new class of microtubule-targeting agents” (J Med Chem, 2012)
# What was measured:
# [1] = test system: Mus musculus; assay: Toxicity in ICR mouse assessed as mortality at 50 mg/kg, ip administered on day 1; type: organism-based; parameters: dose 50 mg/kg, route intraperitoneal; settings: in vivo
# [2] = test system: CCRF-CEM; assay: Cytotoxicity against human CEM cells after 72 hrs by MTT assay; type: functional, cell-based
# [3] = test system: Mus musculus; assay: Toxicity in nude BALB/c mouse xenografted with human HT-29 cells assessed as mortality at 30 mg/kg, ip qd after 21 days; type: organism-based; parameters: dose 30 mg/kg, route intraperitoneal; settings: in vivo, 504 h
# [4] = test system: Mus musculus; assay: Toxicity in nude BALB/c mouse xenografted with human HT-29 cells assessed as mortality at 50 mg/kg, ip qd after 21 days; type: organism-based; parameters: dose 50 mg/kg, route intraperitoneal; settings: in vivo, 504 h
# [5] = test system: HT-29; assay: Antitumor activity against human HT-29 cells xenografted in nude BALB/c mouse assessed as decrease in tumor volume at 30 mg/kg, ip qd measured on day 21 relative to vehicle-treated control; type: functional; settings: route intraperitoneal
# [6] = test system: HT-29; assay: Antitumor activity against human HT-29 cells xenografted in nude BALB/c mouse assessed as decrease in tumor volume at 50 mg/kg, ip qd measured on day 21 relative to vehicle-treated control; type: functional; settings: route intraperitoneal
# [7] = test system: Mus musculus; assay: Toxicity in nude BALB/c mouse xenografted with human HT-29 cells assessed as body weight change at 30 mg/kg, ip qd after 21 days (reference value: 2.7 g); type: organism-based; parameters: dose 30 mg/kg, route intraperitoneal; settings: in vivo, 504 h
# [8] = test system: Mus musculus; assay: Toxicity in nude BALB/c mouse xenografted with human HT-29 cells assessed as body weight change at 50 mg/kg, ip qd after 21 days (reference value: 2.7 g); type: organism-based; parameters: dose 50 mg/kg, route intraperitoneal; settings: in vivo, 504 h
# [9] = test system: Mus musculus; assay: Toxicity in nude BALB/c mouse xenografted with human HT-29 cells assessed as effect on WBC count at 30 mg/kg, ip qd after 21 days (reference value: 25.38 +/- 0.22 x 10^3 mm'-3); type: organism-based; parameters: dose 30 mg/kg, route intraperitoneal; settings: in vivo, 504 h
# [10] = test system: Mus musculus; assay: Toxicity in nude BALB/c mouse xenografted with human HT-29 cells assessed as effect on WBC count at 50 mg/kg, ip qd after 21 days (reference value: 25.38 +/- 0.22 x 10^3 mm'-3); type: organism-based; parameters: dose 50 mg/kg, route intraperitoneal; settings: in vivo, 504 h
# [11] = test system: Mus musculus; assay: Toxicity in nude BALB/c mouse xenografted with human HT-29 cells assessed as effect on lymphocyte count at 30 mg/kg, ip qd after 21 day (reference value: 15.88 +/- 0.41 x 10^3 mm'-3); type: organism-based; parameters: dose 30 mg/kg, route intraperitoneal; settings: in vivo, 504 h
# [12] = test system: Mus musculus; assay: Toxicity in nude BALB/c mouse xenografted with human HT-29 cells assessed as effect on lymphocyte count at 50 mg/kg, ip qd after 21 days (reference value: 15.88 +/- 0.41 x 10^3 mm'-3); type: organism-based; parameters: dose 50 mg/kg, route intraperitoneal; settings: in vivo, 504 h
# [13] = test system: Mus musculus; assay: Toxicity in nude BALB/c mouse xenografted with human HT-29 cells assessed as effect on platelet count at 30 mg/kg, ip qd after 21 days (reference value: 1509 +/- 34 x 10^3 mm'-3); type: organism-based; parameters: dose 30 mg/kg, route intraperitoneal; settings: in vivo, 504 h
# [14] = test system: Mus musculus; assay: Toxicity in nude BALB/c mouse xenografted with human HT-29 cells assessed as effect on platelet count at 50 mg/kg, ip qd after 21 days (reference value: 1509 +/- 34 x 10^3 mm'-3); type: organism-based; parameters: dose 50 mg/kg, route intraperitoneal; settings: in vivo, 504 h
# [15] = test system: Mus musculus; assay: Toxicity in nude BALB/c mouse xenografted with human HT-29 cells assessed as effect on ALT level at 30 mg/kg, ip qd after 21 days (reference value: 28 +/- 0.4 IU/L); type: organism-based; parameters: dose 30 mg/kg, route intraperitoneal; settings: in vivo, 504 h
# [16] = test system: Mus musculus; assay: Toxicity in nude BALB/c mouse xenografted with human HT-29 cells assessed as effect on ALT level at 50 mg/kg, ip qd after 21 days (reference value: 28 +/- 0.4 IU/L); type: organism-based; parameters: dose 50 mg/kg, route intraperitoneal; settings: in vivo, 504 h
# [17] = test system: Mus musculus; assay: Toxicity in nude BALB/c mouse xenografted with human HT-29 cells assessed as effect on ALP level at 30 mg/kg, ip qd after 21 days (reference value: 107.6 +/- 0.8 IU/L); type: organism-based; parameters: dose 30 mg/kg, route intraperitoneal; settings: in vivo, 504 h
# [18] = test system: Mus musculus; assay: Toxicity in nude BALB/c mouse xenografted with human HT-29 cells assessed as effect on ALP level at 50 mg/kg, ip qd after 21 days (reference value: 107.6 +/- 0.8 IU/L); type: organism-based; parameters: dose 50 mg/kg, route intraperitoneal; settings: in vivo, 504 h
# [19] = test system: Mus musculus; assay: Toxicity in nude BALB/c mouse xenografted with human HT-29 cells assessed as change in kidney weight at 50 mg/kg, ip qd after 21 days relative to vehicle-treated control; type: organism-based; parameters: dose 50 mg/kg, route intraperitoneal; settings: in vivo, 504 h
# [20] = test system: Mus musculus; assay: Toxicity in nude BALB/c mouse xenografted with human HT-29 cells assessed as change in liver weight at 50 mg/kg, ip qd after 21 days relative to vehicle-treated control; type: organism-based; parameters: dose 50 mg/kg, route intraperitoneal; settings: in vivo, 504 h
# [21] = test system: Mus musculus; assay: Toxicity in nude BALB/c mouse xenografted with human HT-29 cells assessed as change in spleen weight at 50 mg/kg, ip qd after 21 days relative to vehicle-treated control; type: organism-based; parameters: dose 50 mg/kg, route intraperitoneal; settings: in vivo, 504 h
# [22] = test system: Mus musculus; assay: Toxicity in ICR mouse assessed as body weight loss at 50 mg/kg, ip administered on day 1 measured for 10 days relative to vehicle-treated control; type: organism-based; parameters: dose 50 mg/kg, route intraperitoneal; settings: in vivo, 240 h
# [23] = test system: HCT-116; assay: cells; settings: Homo sapiens, HCT-116, 72 h
# [24] = test system: MDA-MB-435; assay: cells; settings: Homo sapiens, MDA-MB-435, 72 h
# Description: Cytotoxicity against human MDA-MB-435 cells after 72 hrs by MTT assay
smiles,measurement,setting,value
COc1ccc(/C=C\c2cc(OC)c(OC)c(OC)c2)cc1O [COMBRETASTATIN A4],Activity,[1],Non-toxic
same,IC50,[2],1 nM
same,Activity,[3],Non-toxic
same,Activity,[4],Non-toxic
same,T/C,[5],53%
same,T/C,[6],47%
same,Activity,[7],1.7 g
same,Activity,[8],1.8 g
same,Activity,[9],19.34 ×10³ /mm3
same,Activity,[10],12.09 ×10³ /mm3
same,Activity,[11],10.62 ×10³ /mm3
same,Activity,[12],4.14 ×10³ /mm3
same,Activity,[13],1923 ×10³ /mm3
same,Activity,[14],2206 ×10³ /mm3
same,Activity,[15],25 IU/L
same,Activity,[16],66.3 IU/L
same,Activity,[17],105.3 IU/L
same,Activity,[18],149.3 IU/L
same,Activity,[19],Toxic
same,Activity,[20],Toxic
same,Activity,[21],Toxic
same,Activity,[22],Toxic
same,IC50,[23],1 nM
same,IC50,[24],1 nM
